Experimental data published in ChEMBL document CHEMBL1201862, “PubChem BioAssay data set” (2004).
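Method: 48-hour compound exposure of cells in 96-well plates, five concentrations, linear interpolation of endpoints. GI50 = concentration required for 50% inhibition of growth.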 The source made the active and inactive calls. Cut-off read from the data, not from the text of the source: active = GI50 up to about 1.1 µM and inactive = higher.

Columns and labels:
Assay in all cases: DTP human tumour cell line panel, 48 h
IGROV-1 = tested on: IGROV-1
NCI-H460 = tested on: NCI-H460
RPMI-8226 = tested on: RPMI-8226
MOLT-4 = tested on: MOLT-4
SW-620 = tested on: SW-620
SK-MEL-5 = tested on: SK-MEL-5
ACHN = tested on: ACHN
SK-MEL-28 = tested on: SK-MEL-28
MCF7 = tested on: MCF7
K562 = tested on: K562
MDA-MB-435 = tested on: MDA-MB-435
HOP-62 = tested on: HOP-62
OVCAR-8 = tested on: OVCAR-8
MDA-MB-231 = tested on: MDA-MB-231
CAKI-1 = tested on: CAKI-1
SF-295 = tested on: SF-295
HCT-15 = tested on: HCT-15
786-0 = tested on: 786-0
CCRF-CEM = tested on: CCRF-CEM
A498 = tested on: A498
HCT-116 = tested on: HCT-116
SN12C = tested on: SN12C
COLO 205 = tested on: COLO 205
UO-31 = tested on: UO-31
Hs-578T = tested on: Hs-578T
SF-539 = tested on: SF-539
DU-145 = tested on: DU-145
HOP-92 = tested on: HOP-92
UACC-257 = tested on: UACC-257
OVCAR-5 = tested on: OVCAR-5
PC-3 = tested on: PC-3
RXF 393 = tested on: RXF 393
T47D = tested on: T47D
LOX IMVI = tested on: LOX IMVI
SNB-75 = tested on: SNB-75
OVCAR-3 = tested on: OVCAR-3
NCI/ADR-RES = tested on: NCI/ADR-RES
SF-268 = tested on: SF-268
HCC 2998 = tested on: HCC 2998
HL-60 = tested on: HL-60
A549 = tested on: A549
NCI-H226 = tested on: NCI-H226
SR = tested on: SR
NCI-H23 = tested on: NCI-H23
HT-29 = tested on: HT-29
OVCAR-4 = tested on: OVCAR-4
SK-OV-3 = tested on: SK-OV-3
NCI-H522 = tested on: NCI-H522
SNB-19 = tested on: SNB-19
EKVX = tested on: EKVX
MDA-N = tested on: MDA-N
Malme-3M = tested on: Malme-3M
U-251 = tested on: U-251
UACC-62 = tested on: UACC-62
SK-MEL-2 = tested on: SK-MEL-2
KM12 = tested on: KM12
TK-10 = tested on: TK-10
M14 = tested on: M14
BT-549 = tested on: BT-549

## CC(=O)CCC[C@@H](C)[C@@H]1O[C@H]([C@@]2(C)CCC(=O)O2)C[C@H]2C(CSc3ccccc3)C(=O)O[C@@H]12 (some centres undefined)
IGROV-1
  GI50: 9.66 µM (inactive)
NCI-H460
  GI50: 20.7 µM (inactive)
RPMI-8226
  GI50: 13.3 µM (inactive)
MOLT-4
  GI50: 2.96 µM (inactive)
SW-620
  GI50: 10.3 µM (inactive)
SK-MEL-5
  GI50: 21.4 µM (inactive)
ACHN
  GI50: 14.3 µM (inactive)
SK-MEL-28
  GI50: 18.7 µM (inactive)
MCF7
  GI50: 9.55 µM (inactive)
K562
  GI50: 6.18 µM (inactive)
MDA-MB-435
  GI50: 16.1 µM (inactive)
HOP-62
  GI50: 65.2 µM (inactive)
OVCAR-8
  GI50: 20 µM (inactive)
MDA-MB-231
  GI50: 18.1 µM (inactive)
CAKI-1
  GI50: 12.7 µM (inactive)
SF-295
  GI50: 44.1 µM (inactive)
HCT-15
  GI50: 17.3 µM
786-0
  GI50: 12.9 µM (inactive)
CCRF-CEM
  GI50: 3.3 µM (inactive)
A498
  GI50: 27.4 µM (inactive)
HCT-116
  GI50: 15.6 µM (inactive)
SN12C
  GI50: 14.9 µM (inactive)
COLO 205
  GI50: 15.6 µM (inactive)
UO-31
  GI50: 14.2 µM (inactive)
Hs-578T
  GI50: 12.4 µM (inactive)
SF-539
  GI50: 14.6 µM (inactive)
DU-145
  GI50: 14.6 µM (inactive)
HOP-92
  GI50: 16.3 µM (inactive)
UACC-257
  GI50: 13.4 µM (inactive)
OVCAR-5
  GI50: 15.1 µM (inactive)
PC-3
  GI50: 19 µM (inactive)
RXF 393
  GI50: 4.16 µM (inactive)
T47D
  GI50: 17.9 µM (inactive)
LOX IMVI
  GI50: 12.4 µM (inactive)
SNB-75
  GI50: > 40.4 µM (inactive)
OVCAR-3
  GI50: 13.8 µM (inactive)
NCI/ADR-RES
  GI50: 17.7 µM (inactive)
SF-268
  GI50: 20 µM (inactive)
HCC 2998
  GI50: 15.3 µM (inactive)
HL-60
  GI50: 2.42 µM (inactive)
A549
  GI50: 13.8 µM (inactive)
NCI-H226
  GI50: 14.8 µM (inactive)
SR
  GI50: 6.79 µM (inactive)
NCI-H23
  GI50: 17.9 µM (inactive)
HT-29
  GI50: 17 µM (inactive)
OVCAR-4
  GI50: 13.2 µM (inactive)
SK-OV-3
  GI50: 44.7 µM (inactive)
NCI-H522
  GI50: 3.6 µM (inactive)
SNB-19
  GI50: 33.4 µM (inactive)
EKVX
  GI50: 9.98 µM (inactive)
MDA-N
  GI50: 13.8 µM (inactive)
Malme-3M
  GI50: 8.09 µM (inactive)
U-251
  GI50: 16.9 µM (inactive)
UACC-62
  GI50: 14.5 µM (inactive)
SK-MEL-2
  GI50: 17.3 µM (inactive)
KM12
  GI50: 15.1 µM (inactive)
TK-10
  GI50: 12.6 µM (inactive)
M14
  GI50: 13.3 µM (inactive)
BT-549
  GI50: 11.6 µM (inactive)
